# ChEMBL document CHEMBL5247618, “Discovery and optimization of 4-anilinoquinazoline derivatives spanning ATP binding site and allosteric site as effective EGFR-C797S inhibitors” (Eur J Med Chem, 2022)
# How the values were obtained:
# in vivo [1] = details: Sprague-Dawley, rat, iv, 1 mg/kg
# in vivo [2] = details: Sprague-Dawley, rat, iv, 1 mg/kg; remark: listed apart in the source
# in vivo [3] = details: Sprague-Dawley, rat, po, 10 mg/kg
# in vivo [4] = details: Sprague-Dawley, rat, po, 10 mg/kg; remark: listed apart in the source
smiles,measurement,setting,value
COc1cc2c(Nc3ccc(Oc4ccccc4)cc3)ncnc2cc1OCC1CCN(C)CC1,half-life,in vivo [1],1.97 h
same,Cmax,in vivo [2],69.6 ng/mL
same,bioavailability,in vivo [3],9.33%
same,Cmax,in vivo [4],7.43 ng/mL
